Data: patent US6656694B2, “Method for identifying a ligand for a biological substrate” (Theravance, Inc., priority 2001, dated 2003)

Key:
[1] = target: T1, human cloned muscarinic receptor (M2) (Homo sapiens, UniProt P08172); test: Binding of Compound D to the receptor measured using 3H-NMS; conditions: stated more potent than Compound A
T1 sequence (P08172 1-466): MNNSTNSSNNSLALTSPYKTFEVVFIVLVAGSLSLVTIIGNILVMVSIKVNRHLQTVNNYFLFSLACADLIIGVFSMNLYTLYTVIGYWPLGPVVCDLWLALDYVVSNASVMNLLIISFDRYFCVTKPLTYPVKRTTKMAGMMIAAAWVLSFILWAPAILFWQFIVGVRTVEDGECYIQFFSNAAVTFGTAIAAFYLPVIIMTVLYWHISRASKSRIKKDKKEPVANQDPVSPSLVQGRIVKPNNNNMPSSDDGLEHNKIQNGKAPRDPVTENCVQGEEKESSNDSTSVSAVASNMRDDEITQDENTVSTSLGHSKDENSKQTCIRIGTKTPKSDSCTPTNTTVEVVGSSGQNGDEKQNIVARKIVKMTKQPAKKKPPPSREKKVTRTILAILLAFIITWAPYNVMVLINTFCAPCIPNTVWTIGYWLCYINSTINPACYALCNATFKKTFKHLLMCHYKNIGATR
Description: (§1) d) membrane containing human cloned muscarinic receptor (prepared by expressing M2 coding plasmid in CHO cells using well-known procedures and reagents).
(§2) The 96 well plate is then incubated for 1 hour at 37° C. After incubation, the membranes are filtered to separate bound from unbound ^3H-NMS. Scintillant is then added, and the plate is placed in a counter to measure the radioactivity in each well.
The binding of Compound D to the receptor is then measured using ^3H-NMS.

[2] = target: T2, human cloned muscarinic receptor (M2), second binding site (Homo sapiens, UniProt P08172); test: Screening of candidate compounds: effect on 3H-NMS binding in the presence of multibinding Compound A; conditions: candidate 500 nM; Compound A 200 nM; 3H-NMS 10 nM; PBS pH 7.4; CHO membranes; 1 hour at 37° C.; B and C relative to each other
T2 sequence (P08172 1-466): T1 sequence (P08172 1-466)
Description: Into each well in a 96 well place, the following are added:
a) Compound A, such that the final concentration in the well is 200 nM (10 times the Kd of Compound A) in phosphate buffered saline at pH 7.4;
b) tritiated N-methyl scopalamine (^3H-NMS), such that the final concentration in each well is 10 nM (0.5 times the Kd of ^3H-NMS);
c) a candidate compound at a final concentration of 500 nM, the candidate compound being selected from amines including Compound B and Compound C (which are commercially available); [drawing 5]
as §1, §2
The amount of radioactivity determined for each well is then compared to a pre-determined amount of radioactivity measured using the above procedure in the absence of a candidate compound. […]

Kd [1] [nM] | binding to the receptor (radioactivity of bound 3H-NMS observed) [2] | Compound
2 |  | COc1cccc(OC)c1CN1CCC(N(C)CCCCCCCN2CCC(OC(=O)Nc3ccccc3-c3ccccc3)CC2)CC1 [Compound D]
 | bind strongly | CNC1CCN(Cc2c(OC)cccc2OC)CC1 [Compound C]
 | bind weakly | O=C(Nc1ccc2ccccc2c1)C1CC(O)CN1 (stereo not drawn) [Compound B]
